Reference: patent US6482921B1, “Uridyl peptide antibiotic (UPA) derivatives, their synthesis and use” (Essential Therapeutics, Inc., priority 1999, dated 2002)
≈ marks a conversion by molar mass, not a printed value.

How the values were obtained:
[1] = tested on: Pseudomonas aeruginosa PAM 1154; assay: MIC broth microdilution, P. aeruginosa PAM 1154 (OprM::Hg); assay type: cell-based; conditions: P. aeruginosa PAM 1154 OprM::Hg
[2] = tested on: Pseudomonas aeruginosa PAM 1323; assay: MIC broth microdilution, P. aeruginosa PAM 1323 (medium level UPA resistance); assay type: cell-based
[3] = tested on: Pasteurella multocida pm002; assay: MIC broth microdilution, P. multocida pm002 (wild type); assay type: cell-based
[4] = tested on: Staphylococcus aureus 8325-4; assay: MIC broth microdilution, S. aureus 8325-4 (wild type); assay type: cell-based; conditions: S. aureus 8325-4
[5] = tested on: Escherichia Coli MC 4100; assay: MIC broth microdilution, E. coli MC 4100 (wild type); assay type: cell-based; conditions: E. coli MC 4100
[6] = tested on: Escherichia Coli MC 4100 AcrAB UPA3r; assay: MIC broth microdilution, E. coli MC 4100 AcrAB UPA3r (ΔAcrAB, UPA resistant); assay type: cell-based; conditions: E. coli AcrAB UPA3^r
[7] = tested on: Staphylococcus aureus ATCC 29213; assay: MIC broth microdilution, S. aureus ATCC 29213 (wild type); assay type: cell-based; conditions: S. aureus ATCC 29213
[8] = tested on: Pseudomonas aeruginosa PAM 1020; assay: MIC broth microdilution, P. aeruginosa PAM 1020 (wild type); assay type: cell-based; conditions: P. aeruginosa PAM 1020
[9] = tested on: Escherichia Coli MC 4100 AcrAB; assay: MIC broth microdilution, E. coli MC 4100 AcrAB (ΔAcrAB); assay type: cell-based; conditions: E. coli AcrAB
[10] = tested on: Mycobacterium fortuitum ATCC 6841; assay: MIC broth microdilution, M. fortuitum ATCC 6841; conditions: 72 hours at 35° C., CAMHB
[11] = tested on: Mycobacterium smegmatis ATCC 19420; assay: MIC broth microdilution, M. smegmatis ATCC 19420; conditions: 72 hours at 35° C., CAMHB
[12] = tested on: Pseudomonas aeruginosa PAM 1135; assay: MIC broth microdilution, P. aeruginosa PAM 1135 (high level UPA resistance); assay type: cell-based; conditions: P. aeruginosa PAM 1135 UPA1^r

Structure (SMILES) | MIC (μg/ml) Broth microdilution [1] [µg/mL] | MIC (μg/ml) Broth microdilution [2] [µg/mL] | MIC (μg/ml) Broth microdilution [3] [µg/mL] | MIC (μg/ml) Broth microdilution [4] [µg/mL] | MIC (μg/ml) Broth microdilution [5] [µg/mL] | MIC (μg/ml) Broth microdilution [6] [µg/mL] | MIC (μg/ml) Broth microdilution [7] [µg/mL] | MIC (μg/ml) Broth microdilution [8] [µg/mL] | MIC (μg/ml) Broth microdilution [9] [µg/mL] | MIC Broth microdilution M. fortuitum ATCC 6841 [10] [µg/mL] | MIC Broth microdilution M. smegmatis ATCC19420 [11] [µg/mL] | MIC (μg/ml) Broth microdilution [12] [µg/mL]
C[C@H](N)C(=O)N(C)[C@@H](C)[C@H](NC(=O)[C@H](Cc1ccccc1)NC(=O)N[C@@H](Cc1ccc(O)cc1)C(=O)O)C(=O)NC[C@H]1C[C@@H](O)[C@H](n2ccc(=O)[nH]c2=O)O1 [Compound 160] | 8 (≈ 10.4 µM) | >512 | 256 (≈ 334 µM) | 512 (≈ 668 µM) | 32 (≈ 41.7 µM) | 4 (≈ 5.22 µM) | 512 (≈ 668 µM) | 16 (≈ 20.9 µM) | <1 | 128 (≈ 167 µM) | 16 (≈ 20.9 µM) | >512
CC(N)C(=O)N(C)C(C)C(NC(=O)C(Cc1csc2ccccc12)NC(=O)NC(Cc1ccc(O)cc1)C(=O)O)C(=O)NCC1CC(O)C(n2ccc(=O)[nH]c2=O)O1 [Compound 130, 1-[5′-[(2S,3S)-N^3-L-Alanyl-N^2-[N-[[(1S)-1-carboxy-4-hydroxyphenethyl]carbamoyl]-L-benzothienylalanyl]-N^3-methyl-2,3-diaminobutyramidol-3′,5′-dideoxy-α-L-arabinofuranosyl]uracil] | 16 (≈ 19.4 µM) | >512 | 512 (≈ 622 µM) | 256 (≈ 311 µM) | 64 (≈ 77.8 µM) | 16 (≈ 19.4 µM) | 128 (≈ 156 µM) | 64 (≈ 77.8 µM) | 8 (≈ 9.72 µM) | 32 (≈ 38.9 µM) | 8 (≈ 9.72 µM) | >512
CC(C)[C@H](NC(=O)N[C@@H](Cc1c[nH]c2ccccc12)C(=O)O)C(=O)N[C@H](C(=O)NC[C@H]1C[C@@H](O)[C@H](n2ccc(=O)[nH]c2=O)O1)[C@H](C)N(C)C(=O)[C@H](C)N [Compound 169, 1-[5′-[(2S,3S)-N^3-L-Alanyl-N^2-[N-[[(1S)-1-carboxy-2-indol-3-ylethyl]carbamoyl]-L-valinyl]-N^3-methyl-2,3-diaminobutyramido]-3′,5′-dideoxy-α-L-arabinofuranosyl]uracil] | 128 (≈ 173 µM) | 64 (≈ 86.3 µM) | 128 (≈ 173 µM) | >512 | 256 (≈ 345 µM) | 32 (≈ 43.1 µM) | >512 | 128 (≈ 173 µM) | 2 (≈ 2.7 µM) |  |  | >512
CC(C(NC(=O)C(Cc1ccc(F)cc1)NC(=O)NC(Cc1ccc(O)cc1)C(=O)O)C(=O)NCC1CC(O)C(n2ccc(=O)[nH]c2=O)O1)N(C)C(=O)CN [Compound 129, 1-[5′-[(2S,3S)-N^2-[N-[[(1S)-1-Carboxy-4-hydroxyphenethyl)-L-4-fluorophenylalanyl]-N^3-glycyl-N^3-methyl-2,3-diaminobutyramido]-3′,5′-dideoxy-α-L-arabinofuranosyl]uracil] | 8 (≈ 10.4 µM) | >512 | 256 (≈ 332 µM) | 512 (≈ 664 µM) | 8 (≈ 10.4 µM) | 2 (≈ 2.59 µM) | >512 | 32 (≈ 41.5 µM) | <1 |  |  | >512
CC(N)C(=O)N(C)C(C)C(NC(=O)C(CCc1ccccc1)NC(=O)NC(Cc1c[nH]c2ccccc12)C(=O)O)C(=O)NCC1CC(O)C(n2ccc(=O)[nH]c2=O)O1 [Compound 138, 1-[5′-[(2S,3S)-N^3-L-Alanyl-N^2-[N-[[(1S)-1-carboxy-2-indol-3-ylethyl]carbamoyl]-L-homophenylalanyl]-N^3-methyl-2,3-diaminobutyramido]-3′,5′-dideoxy-α-L-arabinofuranosyl]uracil] | 8 (≈ 9.95 µM) | >512 | >512 | >512 | 512 (≈ 637 µM) | 256 (≈ 318 µM) | >512 | 32 (≈ 39.8 µM) | 2 (≈ 2.49 µM) |  |  | >512
CSCCC(NC(=O)NC(Cc1c[nH]c2ccccc12)C(=O)O)C(=O)NC(C(=O)NCC1CC(O)C(n2ccc(=O)[nH]c2=O)O1)C(C)N(C)C(=O)C(N)Cc1ccccc1 [Compound 111, 1-[5′-[(2S,3S)-N^2-[N-([(1S)-1-Carboxy-2-indol-3-ylethyl]carbamoyl]-L-methionyl]-N^3-L-phenylalanyl-N^3-methyl-2,3-diaminobutyramido]-3′,5′-dideoxy-α-L-arabinofuranosyl]uracil] | 16 (≈ 18.8 µM) | 256 (≈ 301 µM) | 512 (≈ 602 µM) | >512 | 512 (≈ 602 µM) | 512 (≈ 602 µM) | >512 | 128 (≈ 151 µM) | 8 (≈ 9.41 µM) |  |  | 256 (≈ 301 µM)
CN[C@@H](C)[C@H](NC(=O)[C@H](C)NC(=O)N[C@@H](Cc1c[nH]c2ccccc12)C(=O)O)C(=O)NC[C@H]1C[C@@H](O)[C@H](n2ccc(=O)[nH]c2=O)O1 [Compound 165, 1-[5′-[(2S,3S)-N^2-[N-[[(1S)-1-Carboxy-2-indol-3-ylethyl]carbamoyl]-L-alanyl]-N^3-methyl-2,3-diaminobutyramido]-3′,5′-dideoxy-α-L-arabinofuranosyl]uracil] | 128 (≈ 199 µM) | >512 | 256 (≈ 398 µM) | >512 | >512 | 128 (≈ 199 µM) | >512 | >512 | 4 (≈ 6.22 µM) |  |  | >512
CC(N)C(=O)N(C)C(C)C(NC(=O)C(CCc1ccccc1)NC(=O)NC(Cc1ccc(O)cc1)C(=O)O)C(=O)NCC1CC(O)C(n2ccc(=O)[nH]c2=O)O1 [Compound 137, 1-[5′-[(2S,3S)-N^3-L-Alanyl-N^2-[N-[[(1S)-1-carboxy-4-hydroxyphenethyl]carbamoyl]-L-homophenylalanyl]-N^3-methyl-2,3-diaminobutyramido]-3′,5′-dideoxy-α-L-arabinofuranosyl]uracil] | 128 (≈ 164 µM) | >512 | >512 | >512 | 512 (≈ 656 µM) | 256 (≈ 328 µM) | >512 | 64 (≈ 82 µM) | 16 (≈ 20.5 µM) |  |  | >512
CC(C)CC(N)C(=O)N(C)C(C)C(NC(=O)C(Cc1ccccc1)NC(=O)NC(Cc1ccc(O)cc1)C(=O)O)C(=O)NCC1CC(O)C(n2ccc(=O)[nH]c2=O)O1 [Compound 101, 1-[5′-[(2S,3S)-N^2-[N-[[(1S)-1-Carboxy-4-hydroxyphenethyl]carbamoyl]-L-phenylalanyl]-N^3-L-leucyl-N^3-methyl-2,3-diaminobutyramido]-3′,5′-dideoxy-α-L-arabinofuranosyl]uracil] | 8 (≈ 9.89 µM) | >512 | >512 | >512 | >512 | 128 (≈ 158 µM) | >512 | 128 (≈ 158 µM) | 2 (≈ 2.47 µM) |  |  | >512
